Test results as given in ChEMBL document CHEMBL6127136, “Discovery of 1-(Phenylsulfonyl)-1,2,3,4-tetrahydroquinoline Derivative as Orally Bioavailable and Safe RORγt Inverse Agonists for Potential Treatment of Rheumatoid Arthritis” (J Med Chem, 2024).
Active and inactive are the calls of the source. The calls are words filed in the database; no cut-off is given here.

What was measured:
Mus musculus [1] = assay: Antiinflammatory activity against imiquimod-induced psoriasis-like skin inflammation in Balb/c mouse model assessed as reduction in inflammatory cell infiltration in skin at 10 mg/kg, IG preadministered with IMQ for 3 days followed by compound administration from day 4 and measured on day 14 by H and E staining based analysis; format: functional, organism-based; settings: time 11.0 day
[2] = Toxicity in chicken type II collagen-induced arthritis DBA/1 mouse model assessed as increase in thymic cortex to medulla ratio at 20 mg/kg/day, po administered for 2 weeks by H and E staining based analysis; format: organism-based; settings: in vivo, 336 h
Mus musculus [3] = assay: Antiarthritic activity in chicken type II collagen-induced arthritis DBA/1 mouse model assessed as reduction in hind paw erythema at 20 mg/kg/day, po administered for 2 weeks by H and E staining based analysis; format: functional, organism-based
Mus musculus [4] = assay: Antiarthritic activity in chicken type II collagen-induced arthritis DBA/1 mouse model assessed as reduction in fore paw swelling at 20 mg/kg/day, po administered for 2 weeks by H and E staining based analysis; format: functional, organism-based
[5] = Cmax in male DBA/1 mouse at 5 mg/kg, iv measured after 24 hrs by HPLC analysis; format: ADME, organism-based; settings: in vivo
Mus musculus [6] = assay: Antiarthritic activity in chicken type II collagen-induced arthritis DBA/1 mouse model assessed as reduction in fore paw thickness at 20 mg/kg/day, po administered for 2 weeks by H and E staining based analysis; format: functional, organism-based
[7] = AUC (0 to infinity) in male DBA/1 mouse at 20 mg/kg, po measured after 24 hrs by HPLC analysis; format: ADME, organism-based; settings: in vivo
[8] = Toxicity in chicken type II collagen-induced arthritis DBA/1 mouse model assessed as signs of thymic enlargement at 20 mg/kg/day, po administered for 2 weeks by H and E staining based analysis; format: organism-based; settings: in vivo, 336 h
[9] = AUC (0 to t) in male DBA/1 mouse at 20 mg/kg, po measured after 24 hrs by HPLC analysis; format: ADME, organism-based; settings: in vivo
[10] = Oral bioavailability in male DBA/1 mouse at 20 mg/kg measured after 24 hrs by HPLC analysis; format: ADME, organism-based; settings: in vivo
Mus musculus [11] = assay: Antiinflammatory activity against imiquimod-induced psoriasis-like skin inflammation in Balb/c mouse model assessed as reduction in mononuclear cell infiltration in skin at 10 mg/kg, IG preadministered with IMQ for 3 days followed by compound administration from day 4 and measured on day 14 by H and E staining based analysis; format: functional, organism-based; settings: time 11.0 day
[12] = AUC (0 to infinity) in male DBA/1 mouse at 5 mg/kg, iv measured after 24 hrs by HPLC analysis; format: ADME, organism-based; settings: in vivo
Mus musculus [13] = assay: Antiinflammatory activity against imiquimod-induced psoriasis-like skin inflammation in Balb/c mouse model assessed as decrease in dermal telangiectasia at 10 mg/kg, IG preadministered with IMQ for 3 days followed by compound administration from day 4 and measured on day 14 by H and E staining based analysis; format: functional, organism-based; settings: time 11.0 day
Mus musculus [14] = assay: Antiarthritic activity in chicken type II collagen-induced arthritis DBA/1 mouse model assessed as reduction in hind paw swelling at 20 mg/kg/day, po administered for 2 weeks by H and E staining based analysis; format: functional, organism-based
Mus musculus [15] = assay: Antiinflammatory activity against imiquimod-induced psoriasis-like skin inflammation in Balb/c mouse model assessed as decrease in IL-23 expression in skin at 10 mg/kg, IG preadministered with IMQ for 3 days followed by compound administration from day 4 and measured on day 14 by immunohistochemical analysis; format: functional, organism-based; settings: time 11.0 day
[16] = Toxicity in chicken type II collagen-induced arthritis DBA/1 mouse model assessed as signs of lymphoma at 20 mg/kg/day, po administered for 2 weeks by H and E staining based analysis; format: organism-based; settings: in vivo, 336 h
[17] = Cmax in male DBA/1 mouse at 20 mg/kg, po measured after 24 hrs by HPLC analysis; format: ADME, organism-based; settings: in vivo
[18] = Toxicity in chicken type II collagen-induced arthritis DBA/1 mouse model assessed as behavioral abnormalities at 20 mg/kg/day, po measured after 42 days; format: organism-based; settings: in vivo, 1008 h, time 42 day
Mus musculus [19] = assay: Antiinflammatory activity against imiquimod-induced psoriasis-like skin inflammation in Balb/c mouse model assessed as attenuation of skin layer thickening at 10 mg/kg, IG preadministered with IMQ for 3 days followed by compound administration from day 4 and measured on day 14 by H and E staining based analysis; format: functional, organism-based; settings: time 11.0 day
Mus musculus [20] = assay: Antiinflammatory activity against imiquimod-induced psoriasis-like skin inflammation in Balb/c mouse model assessed as decrease in IL-17F expression in skin at 10 mg/kg, IG preadministered with IMQ for 3 days followed by compound administration from day 4 and measured on day 14 by immunohistochemical analysis; format: functional, organism-based; settings: time 11.0 day
[21] = Half-life in male DBA/1 mouse at 20 mg/kg, po measured after 24 hrs by HPLC analysis; format: ADME, organism-based; settings: in vivo
Mus musculus [22] = assay: Antiinflammatory activity against imiquimod-induced psoriasis-like skin inflammation in Balb/c mouse model assessed as decrease in IL-17A expression in skin at 10 mg/kg, IG preadministered with IMQ for 3 days followed by compound administration from day 4 and measured on day 14 by immunohistochemical analysis; format: functional, organism-based; settings: time 11.0 day
[23] = AUC (0 to t) in male DBA/1 mouse at 5 mg/kg, iv measured after 24 hrs by HPLC analysis; format: ADME, organism-based; settings: in vivo
[24] = Tmax in male DBA/1 mouse at 20 mg/kg, po measured after 24 hrs by HPLC analysis; format: ADME, organism-based; settings: in vivo
[25] = Toxicity in chicken type II collagen-induced arthritis DBA/1 mouse model assessed as morphological changes in thymocytes at 20 mg/kg/day, po administered for 2 weeks by H and E staining based analysis; format: organism-based; settings: in vivo, 336 h
Mus musculus [26] = assay: Antiarthritic activity in chicken type II collagen-induced arthritis DBA/1 mouse model assessed as reduction in clinical score at 20 mg/kg/day, po measured after 42 days; format: functional, organism-based; settings: time 42.0 day
Mus musculus [27] = assay: Antiarthritic activity in chicken type II collagen-induced arthritis DBA/1 mouse model assessed as reduction in fore paw erythema at 20 mg/kg/day, po administered for 2 weeks by H and E staining based analysis; format: functional, organism-based
[28] = Clearance in male DBA/1 mouse at 5 mg/kg, iv measured after 24 hrs by HPLC analysis; format: ADME, organism-based; settings: in vivo
[29] = Half-life in male DBA/1 mouse at 5 mg/kg, iv measured after 24 hrs by HPLC analysis; format: ADME, organism-based; settings: in vivo
[30] = target: T1, Nuclear receptor ROR-gamma (Homo sapiens, UniProt P51449); assay: Inverse agonist activity at N-terminal 6-His-tagged/APC-labeled human RORgammat LBD extracted from Escherichia coli assessed as inhibition of europium-labeled SRC-1 recruitment incubated for 3 hrs by TR-FRET analysis
T1 sequence (P51449 whole entry): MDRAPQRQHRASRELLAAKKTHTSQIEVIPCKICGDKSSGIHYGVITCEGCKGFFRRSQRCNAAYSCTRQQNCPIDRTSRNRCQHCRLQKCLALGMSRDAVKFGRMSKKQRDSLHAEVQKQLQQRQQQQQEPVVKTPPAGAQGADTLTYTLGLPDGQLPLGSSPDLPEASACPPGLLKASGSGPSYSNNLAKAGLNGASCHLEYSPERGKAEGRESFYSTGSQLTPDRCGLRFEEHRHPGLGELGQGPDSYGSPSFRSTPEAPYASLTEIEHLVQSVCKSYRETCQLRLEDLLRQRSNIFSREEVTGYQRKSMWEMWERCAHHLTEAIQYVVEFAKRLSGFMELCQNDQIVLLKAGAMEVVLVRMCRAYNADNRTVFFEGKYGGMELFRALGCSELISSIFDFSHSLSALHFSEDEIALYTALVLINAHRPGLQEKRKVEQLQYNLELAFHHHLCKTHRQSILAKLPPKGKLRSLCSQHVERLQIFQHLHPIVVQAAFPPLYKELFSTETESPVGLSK

[31] = Tmax in male DBA/1 mouse at 5 mg/kg, iv measured after 24 hrs by HPLC analysis; format: ADME, organism-based; settings: in vivo
[32] = Toxicity in imiquimod-induced psoriasis-like skin inflammation Balb/c mouse model assessed as change in body weight at 10 mg/kg, IG preadministered with IMQ for 3 days followed by compound administration from day 4 and measured on day 14; format: organism-based; settings: in vivo, po, 264 h, time 11 day
Mus musculus [33] = assay: Antiarthritic activity in chicken type II collagen-induced arthritis DBA/1 mouse model assessed as reduction in hind paw thickness at 20 mg/kg/day, po administered for 2 weeks by H and E staining based analysis; format: functional, organism-based
[34] = Toxicity in chicken type II collagen-induced arthritis DBA/1 mouse model assessed as body weight loss at 20 mg/kg/day, po measured after 42 days; format: organism-based; settings: in vivo, 1008 h, time 42 day
Mus musculus [35] = assay: Antiarthritic activity in chicken type II collagen-induced arthritis DBA/1 mouse model assessed as improvement in arthritic symptoms at 20 mg/kg/day, po administered for 2 weeks by H and E staining based analysis; format: functional, organism-based
[36] = target: T1, Nuclear receptor ROR-gamma; assay: Inverse agonist activity at GAL4 DNA-binding domain fused RORgamma (unknown origin) transfected in HEK293T cells co-transfected with GAL4-promoter driven luciferase reporter gene assessed as inhibition of RORgammat transcription incubated for 18 to 20 hrs by plate reader analysis; format: cell-based

CCc1ccc(N(CC(C)C)S(=O)(=O)c2ccc(OCC3CCOCC3)c(CO)c2)cc1 [GSK2981278]
Activity (Mus musculus [1]): Active | Activity [2]: Toxic | Activity (Mus musculus [3]): Active | Activity (Mus musculus [4]): Active | Cmax [5]: 1280 ng/mL | Activity (Mus musculus [6]): Active | AUC(0-inf) [7]: 326 ng·h/mL | Activity [8]: Non-Toxic | AUC(0-t) at 24 h [9]: 299 ng·h/mL | bioavailability [10]: 6.2% | Activity (Mus musculus [11]): Active | AUC(0-inf) [12]: 1310 ng·h/mL | Activity (Mus musculus [13]): Active | Activity (Mus musculus [14]): Active | Activity (Mus musculus [15]): Active | Activity [16]: Non-Toxic | Cmax [17]: 99.3 ng/mL | Activity [18]: Non-Toxic | Activity (Mus musculus [19]): Active | Activity (Mus musculus [20]): Active | half-life [21]: 4.99 h | Activity (Mus musculus [22]): Active | AUC(0-t) at 24 h [23]: 1270 ng·h/mL | Tmax [24]: 0.417 h | Activity [25]: Non-Toxic | Activity (Mus musculus [26]): Active | Activity (Mus musculus [27]): Active | clearance [28]: 64.2 mL/min/kg | half-life [29]: 3.81 h | IC50 [30]: 2.5 nM | Tmax [31]: 4.98 min | Activity [32]: Non-Toxic | Activity (Mus musculus [33]): Active | Activity [34]: Non-Toxic | Activity (Mus musculus [35]): Active | IC50 [36]: 13.6 nM
